# Measured values from patent US6426355B1, “Heterocyclic carboxamide-containing thiourea inhibitors of herpes viruses containing phenylenediamine group” (American Home Products, priority 1998, dated 2002).
# Tests used:
# [1] = test system: HCMV recombinant mutant virus (RV145); experiment: HCMV microtiter plate assay (beta-glucuronidase reporter); assay type: cell-based, Human Cytomegalovirus; details: HCMV in human foreskin fibroblasts
# Excerpt: Ninety-six well plate cultures of human foreskin fibroblasts are infected in the presence of inhibitor compound with a HCMV recombinant mutant virus whose genome contains the prokaryotic beta-glucuronidase gene (Jefferson, R. A., S. M. Burgess, and D. Hirsh. 1986. Beta-glucuronidase from Escherichia coli as a gene fusion marker. Proc. Natl. Acad. Sci. USA 83:8447-8451) whose expression is controlled by a viral promoter. An example of such a virus is RV145 (Jones, T. R., V. P. Muzithras, and Y. Gluzman. 1991. Replacement mutagenesis of the human cytomegalovirus genome: US10 and US11 gene products are nonessential. J. Virol. 65:5860-5872). Since it is under the control of a viral promoter, beta-glucuronidase expression is an indirect indicator of growth and replication of HCMV in this assay. At 96 hours post-infection, the infected cell lysates are prepared (using 50 mM sodium phosphate [pH7.0] containing 0.1% Triton X-100 and 0.1% sarkosyl) and assayed for beta-glucuronidase activity using a substrate for the enzyme which when cleaved yields either a product which can be measured colorimetrically in a spectrophotometer or fluorescently in a microfluorimeter. Examples of such substrates are p-nitrophenyl-beta-D-glucuronide and methylumbelliferylglucuronide, respectively. The presence of an antiviral compound is indicated by the reduced expression of the HCMV genome resident beta-glucuronidase gene, compared to the absence of inhibitor. […] Data from this assay generated using varying amounts of inhibitor compound is also used to estimate the IC50 of an inhibitor compound.
# HSV-1 = experiment: HSV Antiviral (ELISA) assay; assay type: cell-based; details: HSV-1 in Vero cells
# Experimental: Vero cells (ATCC #CCL-81) are plated on 96-well tissue culture plates at 3.5×10^4 cells per 100 μl tissue culture DMEM (Dulbecco's modified Eagle media) supplemented with 2% fetal bovine serum (FBS) in each well. After overnight incubation @ 37° C. (in 5% CO2) and 30 minutes prior to infection with HSV-1 (multiplicity of infection equal to 0.006), cells are either untreated, or treated with test compound (multiple concentrations) or reference standard drug control. After approximately 24 hours post-infection incubation @ 37° C. (in 5% CO2), cells are fixed for ELISA assay. The primary antibody is murine anti-HSV glycoprotein D monoclonal primary antibody and the secondary antibody is goat anti-mouse IgG linked to β-galactosidase. Thus the extent of viral replication is determined by assessing β-galactosidase activity by quantifying the generation of the 4-methyl umbelliferone fluorescent cleavage product after addition of the methyl umbelliferyl-β-D-galactoside (Sigma #M1633) substrate on a microfluorimeter (365 nm for excitation and 450 nm for emission). Antiviral activity (IC50) of the test compound is determined by comparing the flourescence obtained in absence of compound to that obtained in the presence of compound.
# VZV strain Ellen = experiment: VZV Antiviral (ELISA) assay; assay type: cell-based; details: VZV strain Ellen in HFF cells
# Experimental: For the generation of stock VZV to be used in the assay, VZV strain Ellen (ATCC #VR-1367) is used to infect human foreskin fibroblast (HFF) cells at low multiplicity (less than 0.1) and incubated overnight at 37° C. in 5% CO2. After the overnight incubation, the mixture of uninfected and VZV-infected HFF infected cells are then harvested and added to each well of 96-well plates (3.5×10^4 cells in 100 μl DMEM supplemented with 2% FBS) which contain test compound or the reference standard drug control (in 100 μl DMEM supplemented with 2% FBS per well). These cells are incubated for three days at 37° C. in 5% CO2, then fixed for ELISA assay. The primary antibody is murine anti-VZV glycoprotein II monoclonal antibody (Applied Biosystems, Inc. #13-145-100) and the secondary antibody is goat anti-mouse IgG linked to β-galactosidase. Thus the extent of viral replication is determined by assessing β-galactosidase activity by quantifying the generation of the 4-methyl umbelliferone fluorescent cleavage product after addition of the methyl umbelliferyl-β-D-galactoside (Sigma #M1633) substrate on a microfluorimeter (365 nm for excitation and 450 nm for emission). Antiviral activity (IC50) of the test compound is determined by comparing the flourescence obtained in absence of compound to that obtained in the presence of compound.
SMILES,IC50 (ug/ml) HCMV [1],IC50 (ug/ml) HSV (HSV-1),IC50 (ug/ml) VZV (VZV strain Ellen)
O=C(Nc1ccc(NC(=S)NCCOc2cc(C(F)(F)F)ccc2F)cc1)c1csnn1 [Example 737],0.005 µg/mL,>10 µg/mL,
O=C(Nc1ccc(NC(=S)NCCSc2ccccc2)cc1)c1csnn1 [Example 655],0.01 µg/mL,>10 µg/mL,
O=C(Nc1ccc(NC(=S)NCc2cccc(C(F)(F)F)c2)cc1)c1csnn1 [Example 731],0.007 µg/mL,>10 µg/mL,
O=C(Nc1ccc(NC(=S)NCCSc2ccccc2)cc1)c1ccco1 [Example 657],0.04 µg/mL,6 µg/mL,
O=C(Nc1ccc(NC(=S)NCCNc2ccccc2)cc1)c1csnn1 [Example 706],0.04 µg/mL,>10 µg/mL,
O=C(Nc1ccc(NC(=S)NCc2cccc(I)c2)cc1)c1ccco1 [Example 662],0.03 µg/mL,>10 µg/mL,
O=C(Nc1ccc(NC(=S)NCCc2cccc(C(F)(F)F)c2F)cc1)c1csnn1 [Example 766],0.006 µg/mL,>10 µg/mL,
O=C(Nc1ccc(NC(=S)NC(CO)c2ccccc2)cc1)c1csnn1 (stereo not shown) [Example 726],,>10 µg/mL,
O=C(Nc1ccc(NC(=S)NCc2ccc(Cl)cc2)cc1)c1csnn1 [Example 742],0.009 µg/mL,>10 µg/mL,
O=C(Nc1ccc(NC(=S)NCCc2ccc(F)c(C(F)(F)F)c2)cc1)c1csnn1 [Example 764],0.004 µg/mL,>10 µg/mL,
O=C(Nc1ccc(NC(=S)Nc2ccc(Cl)c(C(F)(F)F)c2)cc1)c1cscn1 [Example 705],0.006 µg/mL,>10 µg/mL,
O=C(Nc1ccc(NC(=S)NCCCCc2ccccc2)cc1)c1csnn1 [Example 648],0.01 µg/mL,>10 µg/mL,
O=C(Nc1ccc(NC(=S)NCc2ccc3c(c2)OCO3)cc1)c1ccco1 [Example 546],,1.7 µg/mL,7 µg/mL
O=C(Nc1ccc(NC(=S)NCCOc2ccc(Br)cc2)cc1)c1csnn1 [Example 693],0.03 µg/mL,>10 µg/mL,
O=C(Nc1ccc(NC(=S)Nc2ccc(Cl)c(Cl)c2)cc1)c1cscn1 [Example 704],0.006 µg/mL,>10 µg/mL,
O=C(Nc1ccc(NC(=S)NCCc2ccc(Cl)cc2)cc1)c1csnn1 [Example 685],0.006 µg/mL,10 µg/mL,
CC(C)(C)c1ccc(CNC(=S)Nc2ccc(NC(=O)c3csnn3)cc2)cc1 [Example 690],0.004 µg/mL,7 µg/mL,
CC(C)(NC(=S)Nc1ccc(NC(=O)c2csnn2)cc1)c1ccccc1 [Example 728],,9 µg/mL,
CC(NC(=S)Nc1ccc(NC(=O)c2csnn2)cc1)c1ccc(C#N)cc1 (stereo not shown) [Example 822],0.018 µg/mL,,>7.5 µg/mL
CC(NC(=S)Nc1ccc(NC(=O)c2cscn2)cc1)c1ccc(F)cc1Cl (stereo not shown) [Example 839],0.004 µg/mL,,>7.5 µg/mL
CC(NC(=S)Nc1ccc(NC(=O)c2cscn2)cc1)c1ccc(C(F)(F)F)cc1F (stereo not shown) [Example 832],0.001 µg/mL,,>7.5 µg/mL
